Results from ChEMBL document CHEMBL4177737, “Identification of bicyclic hexafluoroisopropyl alcohol sulfonamides as retinoic acid receptor-related orphan receptor gamma (RORγ/RORc) inverse agonists. Employing structure-based drug design to improve pregnane X receptor (PXR) selectivity” (Bioorg Med Chem Lett, 2018).

Legend:
[1] = target: T1, Nuclear receptor subfamily 1 group I member 2 (Homo sapiens, UniProt O75469); assay: Transactivation of PXR in human HepG2 cells by receptor transactivation assay; assay type: ADME, cell-based
T1 sequence (O75469 whole entry): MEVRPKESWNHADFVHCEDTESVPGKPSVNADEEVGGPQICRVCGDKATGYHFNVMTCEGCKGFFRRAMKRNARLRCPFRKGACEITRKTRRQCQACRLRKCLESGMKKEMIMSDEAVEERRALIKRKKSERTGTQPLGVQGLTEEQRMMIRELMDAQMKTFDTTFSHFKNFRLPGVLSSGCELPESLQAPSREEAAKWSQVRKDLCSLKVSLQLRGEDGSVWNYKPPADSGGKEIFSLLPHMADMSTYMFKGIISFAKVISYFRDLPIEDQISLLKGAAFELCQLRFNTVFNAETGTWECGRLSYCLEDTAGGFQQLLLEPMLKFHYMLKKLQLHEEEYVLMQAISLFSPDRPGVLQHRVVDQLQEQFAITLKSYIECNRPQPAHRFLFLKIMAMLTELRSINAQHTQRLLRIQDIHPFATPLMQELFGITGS

PXR (NR1I2) = target: T2, PXR (NR1I2) (Homo sapiens, UniProt O75469); assay: Transactivation of PXR in human HepG2 cells by receptor transactivation assay relative to untreated control; assay type: ADME, cell-based; conditions: HepG2 cells, read-out: %max
T2 sequence (O75469 whole entry): T1 sequence (O75469 whole entry)

[2] = Drug level in Balb/c mouse at 30 mg/kg, po BID measured at 23.5 hrs on day 1; assay type: ADME, organism-based; conditions: in vivo, read-out: Drug uptake
[3] = Drug level in Balb/c mouse at 30 mg/kg, po BID measured at 7.5 hrs on day 1; assay type: ADME, organism-based; conditions: in vivo, read-out: Drug uptake
[4] = Drug level in Balb/c mouse at 30 mg/kg, po BID measured at 1 hr on day 1; assay type: ADME, organism-based; conditions: in vivo, read-out: Drug uptake
[5] = target: T3, Oxysterols receptor LXR-alpha (Homo sapiens, UniProt Q13133); assay: Agonist activity at GAL4-tagged human LXRalpha assessed as receptor activation expressed in African green monkey CV1 cells by luciferase reporter gene assay; assay type: cell-based
T3 sequence (Q13133 whole entry): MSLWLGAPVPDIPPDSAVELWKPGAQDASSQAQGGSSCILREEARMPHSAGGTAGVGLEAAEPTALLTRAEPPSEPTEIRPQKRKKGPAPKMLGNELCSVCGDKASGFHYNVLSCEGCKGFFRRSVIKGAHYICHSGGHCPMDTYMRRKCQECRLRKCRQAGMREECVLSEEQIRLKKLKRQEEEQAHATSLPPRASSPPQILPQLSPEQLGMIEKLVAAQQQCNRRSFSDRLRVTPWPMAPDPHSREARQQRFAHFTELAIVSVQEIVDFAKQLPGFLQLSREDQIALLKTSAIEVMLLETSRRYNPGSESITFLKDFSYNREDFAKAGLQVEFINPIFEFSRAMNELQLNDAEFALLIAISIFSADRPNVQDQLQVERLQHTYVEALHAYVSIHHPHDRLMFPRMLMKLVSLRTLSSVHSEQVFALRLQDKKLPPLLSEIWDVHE

[6] = target: T4, Oxysterols receptor LXR-beta (Homo sapiens, UniProt P55055); assay: Agonist activity at GAL4-tagged human LXRbeta assessed as receptor activation expressed in African green monkey CV1 cells by luciferase reporter gene assay; assay type: cell-based
T4 sequence (P55055 whole entry): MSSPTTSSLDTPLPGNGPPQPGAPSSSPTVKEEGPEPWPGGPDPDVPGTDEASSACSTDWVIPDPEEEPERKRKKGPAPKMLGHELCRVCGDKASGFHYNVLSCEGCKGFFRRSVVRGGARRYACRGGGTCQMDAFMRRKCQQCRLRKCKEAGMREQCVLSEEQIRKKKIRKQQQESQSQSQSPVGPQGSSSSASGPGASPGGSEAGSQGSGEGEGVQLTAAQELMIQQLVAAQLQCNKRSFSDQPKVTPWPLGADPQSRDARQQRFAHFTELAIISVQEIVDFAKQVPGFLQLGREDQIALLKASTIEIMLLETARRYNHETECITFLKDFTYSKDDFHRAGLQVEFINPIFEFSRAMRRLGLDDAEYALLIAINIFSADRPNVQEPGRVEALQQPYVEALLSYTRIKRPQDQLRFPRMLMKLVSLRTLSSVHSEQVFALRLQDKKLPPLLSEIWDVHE

[7] = Stability in human liver microsomes assessed as parent compound remaining incubated for 10 mins; assay type: ADME, microsome; conditions: liver microsomes, read-out: Stability
[8] = Stability in mouse liver microsomes assessed as parent compound remaining incubated for 10 mins; assay type: ADME, microsome; conditions: liver microsomes, read-out: Stability
Mus musculus [9] = assay: Inhibition of IL-2/IL-23 induced IL-17 production in C57BL/6 mouse challenged 3 times with IL-2/IL-23 (at 0, 7 and 23 hrs) after IL-2 alone priming (-24 hrs) at 25 mg/kg, po dosed 30 mins prior to each IL-2/IL-23 co-administration and measured after 7 hrs post last IL-2/IL-23 challenge; assay type: functional; conditions: C57BL/6, po
Mus musculus [10] = assay: Inhibition of IL-2/IL-23 induced IL-17 production in C57BL/6 mouse challenged 3 times with IL-2/IL-23 (at 0, 7 and 23 hrs) after IL-2 alone priming (-24 hrs) at 50 mg/kg, po dosed 30 mins prior to each IL-2/IL-23 co-administration and measured after 7 hrs post last IL-2/IL-23 challenge; assay type: functional; conditions: C57BL/6, po
[11] = Drug level in Balb/c mouse at 30 mg/kg, po BID measured at 1 hr on day 5; assay type: ADME, organism-based; conditions: in vivo, read-out: Drug uptake
[12] = Drug level in Balb/c mouse at 30 mg/kg, po BID measured at 7.5 hrs on day 5; assay type: ADME, organism-based; conditions: in vivo, read-out: Drug uptake
[13] = Drug level in Balb/c mouse at 30 mg/kg, po BID measured at 23.5 hrs on day 5; assay type: ADME, organism-based; conditions: in vivo, read-out: Drug uptake
[14] = Drug level in Balb/c mouse at 100 mg/kg, po BID measured at 1 hr on day 1; assay type: ADME, organism-based; conditions: in vivo, read-out: Drug uptake
[15] = Drug level in Balb/c mouse at 100 mg/kg, po BID measured at 7.5 hrs on day 1; assay type: ADME, organism-based; conditions: in vivo, read-out: Drug uptake
[16] = Drug level in Balb/c mouse at 100 mg/kg, po BID measured at 23.5 hrs on day 1; assay type: ADME, organism-based; conditions: in vivo, read-out: Drug uptake
[17] = Drug level in Balb/c mouse at 100 mg/kg, po BID measured at 1 hr on day 5; assay type: ADME, organism-based; conditions: in vivo, read-out: Drug uptake
[18] = Drug level in Balb/c mouse at 100 mg/kg, po BID measured at 7.5 hrs on day 5; assay type: ADME, organism-based; conditions: in vivo, read-out: Drug uptake

EC50 [1]: 2 µM | Emax (PXR (NR1I2)): 100% | concentration at 23.5 h [2]: 5 nM | concentration at 7.5 h [3]: 134 nM | concentration at 1 h [4]: 3490 nM | EC50 [5]: > 7.5 µM | EC50 [6]: > 7.5 µM | remaining at 10 min [7]: 56% | remaining at 10 min [8]: 62% | concentration at 1 h [11]: 555 nM | concentration at 7.5 h [12]: 21 nM | concentration at 23.5 h [13]: 5 nM | concentration at 1 h [14]: 13900 nM | concentration at 7.5 h [15]: 2460 nM | concentration at 23.5 h [16]: 19 nM | concentration at 1 h [17]: 2830 nM | concentration at 7.5 h [18]: 61 nM
Structure (SMILES): CC(C)(O)[C@H](F)CNC(=O)C[C@@H]1CCc2cc(C(O)(C(F)(F)F)C(F)(F)F)ccc2N1S(=O)(=O)c1ccc(F)cc1
inhibition in vivo at 25 mg/kg (Mus musculus [9]): 74% | inhibition in vivo at 50 mg/kg (Mus musculus [10]): 98%
